# PubChem BioAssay AID1963835 (Molecular Pharmacology Branch, DTP, NCI, 2024)
# Tested on: 699152-130-R-J1-PDC complex spheroid viability
# Assay: Anticancer human tumor 699152-130-R-J1-PDC patient-derived pancreatic carcinoma cell line growth inhibition [POLQ]
# Details: for IC50: curve of first compound; for viability, T/C: stronger effect = lower value
# Method in brief: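 Patient-derived tumour cells were co-cultured with HUVEC and mesenchymal stem cells as multicellular spheroids at 37 °C. They were treated with POLQ inhibitors (novobiocin, ART-558, RP6685) alone or combined with other agents. Top concentrations were at or near clinical Cmax (otherwise 10 microM; SN-38 at 1 microM), decreasing in half-log steps.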
# [1] = second compound 0.0316 µM, first compound 0.0316 µM
# [2] = second compound 0.0316 µM, first compound 0.1 µM
# [3] = second compound 0.0316 µM, first compound 0.316 µM
# [4] = second compound 0.0316 µM, first compound 1 µM
# [5] = second compound 0.0316 µM, first compound 3.16 µM
# [6] = second compound 0.0316 µM, first compound 10 µM
# [7] = second compound 0.1 µM, first compound 0.0316 µM
# [8] = second compound 0.1 µM, first compound 0.1 µM
# [9] = second compound 0.1 µM, first compound 0.316 µM
# [10] = second compound 0.1 µM, first compound 1 µM
# [11] = second compound 0.1 µM, first compound 3.16 µM
# [12] = second compound 0.1 µM, first compound 10 µM
# [13] = second compound 0.316 µM, first compound 0.0316 µM
# [14] = second compound 0.316 µM, first compound 0.1 µM
# [15] = second compound 0.316 µM, first compound 0.316 µM
# [16] = second compound 0.316 µM, first compound 1 µM
# [17] = second compound 0.316 µM, first compound 3.16 µM
# [18] = second compound 0.316 µM, first compound 10 µM
# [19] = second compound 1 µM, first compound 0.0316 µM
# [20] = second compound 1 µM, first compound 0.1 µM
# [21] = second compound 1 µM, first compound 0.316 µM
# [22] = second compound 1 µM, first compound 1 µM
# [23] = second compound 1 µM, first compound 3.16 µM
# [24] = second compound 1 µM, first compound 10 µM
# [25] = second compound 3.16 µM, first compound 0.0316 µM
# [26] = second compound 3.16 µM, first compound 0.1 µM
# [27] = second compound 3.16 µM, first compound 0.316 µM
# [28] = second compound 3.16 µM, first compound 1 µM
# [29] = second compound 3.16 µM, first compound 3.16 µM
# [30] = second compound 3.16 µM, first compound 10 µM
# [31] = second compound 10 µM, first compound 0.0316 µM
# [32] = second compound 10 µM, first compound 0.1 µM
# [33] = second compound 10 µM, first compound 0.316 µM
# [34] = second compound 10 µM, first compound 1 µM
# [35] = second compound 10 µM, first compound 3.16 µM
# [36] = second compound 10 µM, first compound 10 µM
# 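Further: spheroids exposed to agents for 7 days before viability reading.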
# 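Wherever viability, T/C is given: percent of DMSO vehicle control viability so 100% = vehicle and 0% = no viable signal.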
smiles,measurement,setting,value
COc1ccc([C@@H](O)c2cc(-c3ncnc4cc(N5CCOCC5)ccc34)c(F)cc2Cl)nn1 + Nc1ccc(C#CCN(C(=O)Cc2ncc(C(F)(F)F)cc2C(F)(F)F)c2ccc(F)cc2)nn1,IC50,second compound 0.0316 µM,3.01 µM
same,IC50,second compound 0.1 µM,2.89 µM
same,IC50,second compound 0.316 µM,3.05 µM
same,IC50,second compound 1 µM,3.39 µM
same,IC50,second compound 3.16 µM,3.54 µM
same,IC50,second compound 10 µM,3.89 µM
same,"viability, T/C",[1],89.7%
same,"viability, T/C",[2],95.3%
same,"viability, T/C",[3],82.5%
same,"viability, T/C",[4],78.8%
same,"viability, T/C",[5],48.1%
same,"viability, T/C",[6],19.2%
same,"viability, T/C",[7],95.2%
same,"viability, T/C",[8],93.3%
same,"viability, T/C",[9],91.1%
same,"viability, T/C",[10],76.4%
same,"viability, T/C",[11],47.9%
same,"viability, T/C",[12],25.5%
same,"viability, T/C",[13],114%
same,"viability, T/C",[14],93.2%
same,"viability, T/C",[15],92.5%
same,"viability, T/C",[16],70.9%
same,"viability, T/C",[17],50.2%
same,"viability, T/C",[18],19.3%
same,"viability, T/C",[19],99.5%
same,"viability, T/C",[20],100%
same,"viability, T/C",[21],96.7%
same,"viability, T/C",[22],85.9%
same,"viability, T/C",[23],51.8%
same,"viability, T/C",[24],22.5%
same,"viability, T/C",[25],101%
same,"viability, T/C",[26],92.6%
same,"viability, T/C",[27],90.5%
same,"viability, T/C",[28],83.4%
same,"viability, T/C",[29],52.2%
same,"viability, T/C",[30],21.8%
same,"viability, T/C",[31],116%
same,"viability, T/C",[32],105%
same,"viability, T/C",[33],104%
same,"viability, T/C",[34],84%
same,"viability, T/C",[35],54.9%
same,"viability, T/C",[36],26%
CCc1cc2c(N3CCc4c(cc(Cn5ccnc5)cc4-c4cn(C)nc4C(F)(F)F)C3=O)cc(C)nc2c(OC)n1 + Cc1cccc(N(C)C(=O)C2C(O)CCN2c2nc(C)cc(C(F)(F)F)c2C#N)c1,IC50,second compound 0.0316 µM,> 10 µM
same,IC50,second compound 0.1 µM,> 10 µM
same,IC50,second compound 0.316 µM,> 10 µM
same,IC50,second compound 1 µM,> 10 µM
same,IC50,second compound 3.16 µM,> 10 µM
same,IC50,second compound 10 µM,> 10 µM
same,"viability, T/C",[1],88%
same,"viability, T/C",[2],96.5%
same,"viability, T/C",[3],89.3%
same,"viability, T/C",[4],94.1%
same,"viability, T/C",[5],92.9%
same,"viability, T/C",[6],102%
same,"viability, T/C",[7],90.8%
same,"viability, T/C",[8],93.2%
same,"viability, T/C",[9],95.4%
same,"viability, T/C",[10],97.1%
same,"viability, T/C",[11],91.1%
same,"viability, T/C",[12],98%
same,"viability, T/C",[13],94.3%
same,"viability, T/C",[14],94.5%
same,"viability, T/C",[15],96.9%
same,"viability, T/C",[16],103%
same,"viability, T/C",[17],93.8%
same,"viability, T/C",[18],99.8%
same,"viability, T/C",[19],97.1%
same,"viability, T/C",[20],89.5%
same,"viability, T/C",[21],98.8%
same,"viability, T/C",[22],94%
same,"viability, T/C",[23],91.9%
same,"viability, T/C",[24],88.7%
same,"viability, T/C",[25],104%
same,"viability, T/C",[26],100%
same,"viability, T/C",[27],92.2%
same,"viability, T/C",[28],90.5%
same,"viability, T/C",[29],101%
same,"viability, T/C",[30],96.9%
same,"viability, T/C",[31],84.8%
same,"viability, T/C",[32],93.5%
same,"viability, T/C",[33],94.5%
same,"viability, T/C",[34],96.1%
same,"viability, T/C",[35],86%
same,"viability, T/C",[36],89.8%
C#Cc1c(F)ccc2cc(O)cc(-c3ncc4c(N5CC6CCC(C5)N6)nc(OCC56CCCN5CC(F)C6)nc4c3F)c12 (stereo not drawn) + Cc1cccc(N(C)C(=O)C2C(O)CCN2c2nc(C)cc(C(F)(F)F)c2C#N)c1,IC50,second compound 0.0316 µM,< 0.0316 µM
same,IC50,second compound 0.1 µM,< 0.0316 µM
same,IC50,second compound 0.316 µM,< 0.0316 µM
same,IC50,second compound 1 µM,< 0.0316 µM
same,IC50,second compound 3.16 µM,< 0.0316 µM
same,IC50,second compound 10 µM,< 0.0316 µM
same,"viability, T/C",[1],27.9%
same,"viability, T/C",[2],17.8%
same,"viability, T/C",[3],22.6%
same,"viability, T/C",[4],13.8%
same,"viability, T/C",[5],12.4%
same,"viability, T/C",[6],12.1%
same,"viability, T/C",[7],25.5%
same,"viability, T/C",[8],16.7%
same,"viability, T/C",[9],15.5%
same,"viability, T/C",[10],13.2%
same,"viability, T/C",[11],13.8%
same,"viability, T/C",[12],13.1%
same,"viability, T/C",[13],26.9%
same,"viability, T/C",[14],18.4%
same,"viability, T/C",[15],14.5%
same,"viability, T/C",[16],13.8%
same,"viability, T/C",[17],14.6%
same,"viability, T/C",[18],12.4%
same,"viability, T/C",[19],21.9%
same,"viability, T/C",[20],20.6%
same,"viability, T/C",[21],15.3%
same,"viability, T/C",[22],13.2%
same,"viability, T/C",[23],15.1%
same,"viability, T/C",[24],13.8%
same,"viability, T/C",[25],22.9%
same,"viability, T/C",[26],17.1%
same,"viability, T/C",[27],17.4%
same,"viability, T/C",[28],16.5%
same,"viability, T/C",[29],15.2%
same,"viability, T/C",[30],12.8%
same,"viability, T/C",[31],21.5%
same,"viability, T/C",[32],18.4%
same,"viability, T/C",[33],17.1%
same,"viability, T/C",[34],14.3%
same,"viability, T/C",[35],13.4%
same,"viability, T/C",[36],15.3%
CC1COCCN1c1cc(C2(S(C)(=N)=O)CC2)nc(-c2ccnc3[nH]ccc23)n1 (stereo not drawn) + COC1C(OC(N)=O)C(O)C(Oc2ccc3c(O)c(NC(=O)c4ccc(O)c(CC=C(C)C)c4)c(=O)oc3c2C)OC1(C)C,IC50,second compound 0.0316 µM,> 10 µM
same,IC50,second compound 0.1 µM,> 10 µM
same,IC50,second compound 0.316 µM,> 10 µM
same,IC50,second compound 1 µM,> 10 µM
same,IC50,second compound 3.16 µM,> 10 µM
same,IC50,second compound 10 µM,> 10 µM
same,"viability, T/C",[1],103%
same,"viability, T/C",[2],102%
same,"viability, T/C",[3],95.4%
same,"viability, T/C",[4],96.6%
same,"viability, T/C",[5],79%
same,"viability, T/C",[6],69.3%
same,"viability, T/C",[7],89.8%
same,"viability, T/C",[8],88%
same,"viability, T/C",[9],90.2%
same,"viability, T/C",[10],101%
same,"viability, T/C",[11],73.3%
same,"viability, T/C",[12],60.4%
same,"viability, T/C",[13],98%
same,"viability, T/C",[14],101%
same,"viability, T/C",[15],106%
same,"viability, T/C",[16],88.3%
same,"viability, T/C",[17],78.8%
same,"viability, T/C",[18],63%
same,"viability, T/C",[19],119%
same,"viability, T/C",[20],97.6%
same,"viability, T/C",[21],108%
same,"viability, T/C",[22],92.9%
same,"viability, T/C",[23],77.8%
same,"viability, T/C",[24],66.5%
same,"viability, T/C",[25],108%
same,"viability, T/C",[26],99.2%
same,"viability, T/C",[27],98.1%
same,"viability, T/C",[28],86.4%
same,"viability, T/C",[29],69.3%
same,"viability, T/C",[30],64.5%
same,"viability, T/C",[31],104%
same,"viability, T/C",[32],107%
same,"viability, T/C",[33],90.7%
same,"viability, T/C",[34],90.7%
same,"viability, T/C",[35],86%
same,"viability, T/C",[36],87.3%
